Measurements published in PubChem BioAssay (NCI).
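All cell lines were grown in 96-well plates and treated with compound for 48 hours. The concentration for 50% growth inhibition is given as GI50. TGI denotes the concentration required for complete inhibition of growth.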

Columns and labels:
Experiment in all cases: NCI-60 cell line screen, 48 h
SNB-19 CNS = system: SNB-19 CNS
MDA-MB-231 breast = system: MDA-MB-231 breast
MALME-3M melanoma = system: MALME-3M melanoma
RXF 393 renal = system: RXF 393 renal
SF-295 CNS = system: SF-295 CNS
KM12 colon = system: KM12 colon
OVCAR-3 ovarian = system: OVCAR-3 ovarian
NCI-H522 lung = system: NCI-H522 lung
SK-MEL-28 melanoma = system: SK-MEL-28 melanoma
OVCAR-5 ovarian = system: OVCAR-5 ovarian
SW-620 colon = system: SW-620 colon
TK-10 renal = system: TK-10 renal
RPMI-8226 leukemia = system: RPMI-8226 leukemia
NCI-H226 lung = system: NCI-H226 lung
DU-145 prostate = system: DU-145 prostate
MOLT-4 leukemia = system: MOLT-4 leukemia
HOP-62 NSCLC = system: HOP-62 NSCLC
MCF7 breast = system: MCF7 breast
UACC-62 melanoma = system: UACC-62 melanoma
COLO 205 colon = system: COLO 205 colon
ACHN renal = system: ACHN renal
EKVX NSCLC = system: EKVX NSCLC
NCI-H460 lung = system: NCI-H460 lung
SK-OV-3 ovarian = system: SK-OV-3 ovarian
HCT-116 colon = system: HCT-116 colon
K-562 leukemia = system: K-562 leukemia
BT-549 breast = system: BT-549 breast
NCI/ADR-RES ovarian = system: NCI/ADR-RES ovarian
SK-MEL-2 melanoma = system: SK-MEL-2 melanoma
CCRF-CEM leukemia = system: CCRF-CEM leukemia
HS 578T breast = system: HS 578T breast
IGROV1 ovarian = system: IGROV1 ovarian
HOP-92 NSCLC = system: HOP-92 NSCLC
U251 CNS = system: U251 CNS
SNB-75 CNS = system: SNB-75 CNS
M14 melanoma = system: M14 melanoma
SR leukemia = system: SR leukemia
SN12C renal = system: SN12C renal
PC-3 prostate = system: PC-3 prostate
HL-60(TB) leukemia = system: HL-60(TB) leukemia
A549 NSCLC = system: A549 NSCLC
MDA-MB-435 = system: MDA-MB-435
UO-31 renal = system: UO-31 renal
A498 renal = system: A498 renal
UACC-257 melanoma = system: UACC-257 melanoma
LOX IMVI melanoma = system: LOX IMVI melanoma
HCT-15 colon = system: HCT-15 colon
HCC-2998 colon = system: HCC-2998 colon
SK-MEL-5 melanoma = system: SK-MEL-5 melanoma
SF-539 CNS = system: SF-539 CNS
786-0 renal = system: 786-0 renal
SF-268 CNS = system: SF-268 CNS
HT29 colon = system: HT29 colon
T-47D breast = system: T-47D breast
OVCAR-4 ovarian = system: OVCAR-4 ovarian
CAKI-1 renal = system: CAKI-1 renal
OVCAR-8 ovarian = system: OVCAR-8 ovarian

In the case of `COc1cc(OC)c(S(N)(=O)=O)cc1C(=O)/C=C/c1ccc(Cl)cc1`, the GI50 (SNB-19 CNS) is reported as 3.17 µM, the TGI (SNB-19 CNS) is reported as 16.7 µM and the GI50 (MDA-MB-231 breast) is reported as 3.92 µM. For the same compound, the TGI (MDA-MB-231 breast) was 18.9 µM, the GI50 (MALME-3M melanoma) was 2.79 µM and the TGI (MALME-3M melanoma) was 8.51 µM. For the same compound, the GI50 (RXF 393 renal) was 1.62 µM, the TGI (RXF 393 renal) was 3.34 µM and the GI50 (SF-295 CNS) was 3.88 µM. For the same compound, the TGI (SF-295 CNS) was 12.5 µM, the GI50 (KM12 colon) was 1.82 µM and the TGI (KM12 colon) was 7.06 µM. The GI50 (OVCAR-3 ovarian) was 3.51 µM, the TGI (OVCAR-3 ovarian) was 17.6 µM and the GI50 (NCI-H522 lung) was 1.63 µM. The TGI (NCI-H522 lung) was 3.42 µM, the GI50 (SK-MEL-28 melanoma) was 3.03 µM and the TGI (SK-MEL-28 melanoma) was 9.87 µM. For the same compound, the GI50 (OVCAR-5 ovarian) was 3.18 µM, the TGI (OVCAR-5 ovarian) was 11.5 µM and the GI50 (SW-620 colon) was 2.49 µM. It also gave a TGI (SW-620 colon) of 11.7 µM, a GI50 (TK-10 renal) of 2.91 µM and a TGI (TK-10 renal) of 8.89 µM. The GI50 (RPMI-8226 leukemia) was 1.86 µM, the TGI (RPMI-8226 leukemia) was 6.33 µM and the GI50 (NCI-H226 lung) was 2.56 µM. For the same compound, the TGI (NCI-H226 lung) was 8.86 µM, the GI50 (DU-145 prostate) was 3.44 µM and the TGI (DU-145 prostate) was 15.4 µM. For the same compound, the GI50 (MOLT-4 leukemia) was 2.82 µM, the TGI (MOLT-4 leukemia) was 13 µM and the GI50 (HOP-62 NSCLC) was 2.58 µM. For the same compound, the TGI (HOP-62 NSCLC) was 6.59 µM, the GI50 (MCF7 breast) was 1.08 µM and the TGI (MCF7 breast) was 4.11 µM. The GI50 (UACC-62 melanoma) was 2.67 µM, the TGI (UACC-62 melanoma) was 10.6 µM and the GI50 (COLO 205 colon) was 1.66 µM. It also gave a TGI (COLO 205 colon) of 3.13 µM, a GI50 (ACHN renal) of 3.16 µM and a TGI (ACHN renal) of 11.1 µM. It also gave a GI50 (EKVX NSCLC) of 3.88 µM, a TGI (EKVX NSCLC) of 22.3 µM and a GI50 (NCI-H460 lung) of 2.84 µM. The TGI (NCI-H460 lung) was 12 µM, the GI50 (SK-OV-3 ovarian) was 2.8 µM and the TGI (SK-OV-3 ovarian) was 8.22 µM. The GI50 (HCT-116 colon) was 0.748 µM, the TGI (HCT-116 colon) was 2.13 µM and the GI50 (K-562 leukemia) was 1.85 µM. It also gave a TGI (K-562 leukemia) of 13.6 µM, a GI50 (BT-549 breast) of 1.25 µM and a TGI (BT-549 breast) of 2.73 µM. For the same compound, the GI50 (NCI/ADR-RES ovarian) was 3.97 µM, the TGI (NCI/ADR-RES ovarian) was > 100 µM and the GI50 (SK-MEL-2 melanoma) was 11.5 µM. The TGI (SK-MEL-2 melanoma) was 25.6 µM, the GI50 (CCRF-CEM leukemia) was 1.52 µM and the TGI (CCRF-CEM leukemia) was > 100 µM. The GI50 (HS 578T breast) was 4.22 µM, the TGI (HS 578T breast) was > 100 µM and the GI50 (IGROV1 ovarian) was 2.95 µM. It also gave a TGI (IGROV1 ovarian) of 12.3 µM, a GI50 (HOP-92 NSCLC) of 1.46 µM and a TGI (HOP-92 NSCLC) of 4.92 µM. The GI50 (U251 CNS) was 2.18 µM, the TGI (U251 CNS) was 6.48 µM and the GI50 (SNB-75 CNS) was 1.5 µM. It also gave a TGI (SNB-75 CNS) of 3.23 µM, a GI50 (M14 melanoma) of 1.47 µM and a TGI (M14 melanoma) of 3.14 µM. The GI50 (SR leukemia) was 2.11 µM, the TGI (SR leukemia) was 7.84 µM and the GI50 (SN12C renal) was 2.48 µM. For the same compound, the TGI (SN12C renal) was 12.6 µM, the GI50 (PC-3 prostate) was 1.6 µM and the TGI (PC-3 prostate) was 4.25 µM. It also gave a GI50 (HL-60(TB) leukemia) of 1.91 µM, a TGI (HL-60(TB) leukemia) of 8.88 µM and a GI50 (A549 NSCLC) of 3.17 µM. It also gave a TGI (A549 NSCLC) of 14.2 µM, a GI50 (MDA-MB-435) of 2.08 µM and a TGI (MDA-MB-435) of 6.54 µM. It also gave a GI50 (UO-31 renal) of 2.36 µM, a TGI (UO-31 renal) of 10.3 µM and a GI50 (A498 renal) of 18.6 µM. It also gave a TGI (A498 renal) of 34 µM, a GI50 (UACC-257 melanoma) of 5.46 µM and a TGI (UACC-257 melanoma) of 22.7 µM. For the same compound, the GI50 (LOX IMVI melanoma) was 0.733 µM, the TGI (LOX IMVI melanoma) was 2.51 µM and the GI50 (HCT-15 colon) was 1.46 µM. The TGI (HCT-15 colon) was 10.2 µM, the GI50 (HCC-2998 colon) was 2.41 µM and the TGI (HCC-2998 colon) was 6.12 µM. It also gave a GI50 (SK-MEL-5 melanoma) of 4.93 µM, a TGI (SK-MEL-5 melanoma) of 16.9 µM and a GI50 (SF-539 CNS) of 2.14 µM. For the same compound, the TGI (SF-539 CNS) was 4.82 µM, the GI50 (786-0 renal) was 1.9 µM and the TGI (786-0 renal) was 4.32 µM. The GI50 (SF-268 CNS) was 3.75 µM, the TGI (SF-268 CNS) was 26.1 µM and the GI50 (HT29 colon) was 2.18 µM. For the same compound, the TGI (HT29 colon) was 4.66 µM, the GI50 (T-47D breast) was 2.37 µM and the TGI (T-47D breast) was 12.4 µM. For the same compound, the GI50 (OVCAR-4 ovarian) was 3.54 µM, the TGI (OVCAR-4 ovarian) was 27 µM and the GI50 (CAKI-1 renal) was 1.89 µM. It also gave a TGI (CAKI-1 renal) of 10.5 µM, a GI50 (OVCAR-8 ovarian) of 3.01 µM and a TGI (OVCAR-8 ovarian) of 14.6 µM.
